Assay results published in patent publication US11059844B2, “Immune stimulating macrolides” (ISR IMMUNE SYSTEM REGULATION HOLDING AB (PUBL), priority 2017, dated 2021).

Legend:
[1] = tested on: Bifidobacterium longum subsp. infantis; assay: Minimum Inhibitory Concentration (MIC) assay; type: cell-based; details: anaerobic, 37° C., 18 h
Procedure: (§1) The bioactivity of macrolide compounds against 4 strains of common gut bacteria (Escherichia coli, Streptococcus salivarius subsp. salivarius, Lactobacillus casei and Bifidobacterium longum subsp. infantis) and common mammalian skin isolate Micrococcus luteus, was assessed using the Minimum Inhibitory Concentration (MIC) assay. Bacterial strains were purchased from DSMZ (Brunswick, Germany) except M. luteus which was obtained from NCIMB, and stored in 20% glycerol at −80° C. Stock solutions (100% DMSO) of positive controls (azithromycin and erythromycin), and of test compounds 1 and 2 were diluted in broth to working stock concentrations of 256 μg/ml (final assay testing concentration range 128 μg/ml to 0.00391 μg/ml). Stock solutions of all other compounds were diluted in broth to working stock concentrations of 128 μg/ml (final assay testing concentration range 64 μg/ml to 0.00195 μg/ml). Bacterial strains were cultivated in appropriate broth in an anaerobic chamber at 37° C., except for M. luteus which was incubated aerobically at 37° C. 18 h cultures were diluted in broth to an OD595 of 0.1 and then further diluted 1:10. In 96-well plates, in duplicate, 200 μl working stock of test compound was transferred to well 1 and serially diluted (1:2) in broth. 100 μl bacterial suspension was aliquoted into each well and mixed thoroughly. Appropriate sterility controls were included and plates were incubated in an anaerobic chamber, or aerobically (M. luteus) at 37° C. for 18 h. The MIC was determined to be the concentration of test compound in the first well with no visible growth.

Escherichia coli = assay: Minimum Inhibitory Concentration (MIC) assay; type: cell-based; details: anaerobic, 37° C., 18 h
Procedure: as §1

Lactobacillus casei = assay: Minimum Inhibitory Concentration (MIC) assay; type: cell-based; details: Lacticaseibacillus casei; anaerobic, 37° C., 18 h
Procedure: as §1

Micrococcus luteus = assay: Minimum Inhibitory Concentration (MIC) assay; type: cell-based; details: aerobic, 37° C., 18 h
Procedure: as §1

[2] = tested on: Streptococcus salivarius subsp. salivarius; assay: Minimum Inhibitory Concentration (MIC) assay; type: cell-based; details: anaerobic, 37° C., 18 h
Procedure: as §1

T cells in PBMC = assay: T cell proliferation, Cell Trace Violet and flow cytometry; type: cell-based, Human; details: 6 days in the presence of IL-2
Procedure: FIG. 7. CD4 T cell proliferation after 6 days stimulation with compound 1, measured with proliferation dye Celltrace violet (Invitrogen) and flow cytometry. Untreated cells (UNT) or compound A were used as controls.
Study 6: PBMC were stimulated with compound 1 and cultured in RPMI media for 6 days in the presence of IL-2 (Miltenyi Biotechnologies) and Cell Trace Violet Dye (Invitrogen). Proliferation was measured with flow cytometry.

[3] = tested on: CMV specific CD8+ T cells; assay: CMV cultures: phenotype of CMV specific CD8+ T cells; type: cell-based, Human; details: CMV antigen, 6 days
Procedure: Human peripheral blood mononuclear cells (PBMCs) were purified from healthy CMV positive donors with Ficoll-Paque density centrifugation. The PBMC were labeled with 5 μM celltrace violet (Invitrogen) in PBS for 15 minutes and then washed with complete cell culture medium. The labeled PBMC was cultured in the presence of a peptide library spanning the CMV pp65 protein (1 μg peptide/ml, JPT) in AIM-V media (Invitrogen) supplemented with L-glutamine, Sodium pyruvate (Sigma), 10% fetal bovine serum, 100 μg/mL penicillin and 100 μg/mL streptomycin (Hyclone) for 6-8 days in 37° C., 5% CO2. Cell proliferation was assessed with flow cytomtery using a BD FACS Canto II flow cytometer.
Study 7: Virus specific T cell proliferation was also affected by compound 1. […] CD127 is crucial for T cell homeostasis, differentiation and function, and reduced expression correlates with disease severity in HIV and other chronic viral diseases (Crawley et al. 2012).

[4] = tested on: PBMCs from CMV infected donors; assay: IFN-gamma secretion from PBMCs of CMV infected donors with CMV antigen (cytometric bead assay); type: cell-based, Human; details: 3 days
Description: FIG. 9: Interferon-gamma secretion (as measured by cytometric bead assay) from PBMCs (from a CMV+ donor) grown with CMV peptides in the presence or absence of compound 1 or A for 5 days.
Study 8: PBMCs from CMV infected donors cultured in the presence of CMV antigen where either untreated or exposed to compound 1 or compound 2 for 3 days.

[5] = tested on: Macrophages from healthy donors; assay: Cytokine/chemokine secretion from macrophages (cytometric bead assay); type: cell-based, Human
Procedure: FIG. 10: Interferon-gamma secretion (as measured by cytometric bead assay) from macrophages stimulated with indicated compound for 48 h.
FIG. 11: Chemokine RANTES secretion (as measured by cytometric bead assay) from PBMC or macrophages stimulated with indicated compound for 48 h.
FIG. 12: IL12p70 secretion (as measured by cytometric bead assay) from PBMC or macrophages stimulated with indicated compound for 48 h.
FIG. 13: IL1b secretion (as measured by cytometric bead assay) from PBMC, macrophages or CD4 T cells stimulated with indicated compound for 48 h.
Study 9: Macrophages from healthy donors where exposed to compounds 1 or 2 for 48 hours. […] Compound 1 is therefore able to induce IFN-gamma secretion in macrophages from healthy donors.
Study 10: PBMCs and macrophages where exposed to compounds 1 or 2 for 2 days (FIG. 11).
Study 11: PBMCs and macrophages where exposed to compounds 1 and 2 for 2 days.
Study 12: PBMCs, macrophages and CD4+ T cells where exposed to compounds 1 and 2 for 2 days.

CD11b+ splenocytes = assay: MHC class I expression on CD11b+ splenocytes of mice after i.v. dosing; type: in vivo, C57bl/6 mice; details: spleen removed 24 h later
Procedure: FIG. 15: % MHC class I high CD11 b+ cells in spleen of 3 individual C57bl/6 mice injected 24 h previously with indicated compound. MHC class I and CD11b expression was measured by flow cytometry.
Study 14: Compound 1 or 2 was administered i.v. to C57bl/6 mice.

CC[C@H]1OC(=O)[C@H](C)[C@@H](O[C@H]2C[C@@H](N(C)C)[C@H](O)[C@@H](C)O2)[C@H](C)[C@@H](O)[C@](C)(O)C[C@@H](C)CN(C)[C@H](C)[C@@H](O)[C@]1(C)O [Compound 1]
MIC [1]: > 64 µg/mL
MIC (Escherichia coli): > 64 µg/mL
MIC (Lactobacillus casei): > 64 µg/mL
MIC (Micrococcus luteus): > 256 µg/mL
MIC [2]: > 64 µg/mL
cytokine driven proliferation of T cells (T cells in PBMC): altered cytokine driven proliferation profile
expression of IL-7 receptor a (CD127) on activated CMV specific CD8+ T cells [3]: increased expression
IFN-gamma secretion, PBMCs with CMV antigen [4]: induced secretion of high levels
IL-1beta secretion, macrophages ([5]; 2 days): increased
IL-12p70 secretion, macrophages ([5]; 2 days): secreted IL-12p70
RANTES expression, macrophages ([5]; 2 days): high expression
IFN-gamma secretion, macrophages ([5]; 48 hours): secreted IFN-gamma
splenocyte cells with high MHC I expression (CD11b+) (CD11b+ splenocytes): induced an increase
